Results reported in a melting point compilation (Tetko et al.; mined from patent text by program, amines drawn as free bases though some values may be those of a salt).

Row | Compound | melting point [°C]
1 | O=C(CCCN1CCC(Cc2ccccc2)CC1)c1ccc2c(c1)C(=O)c1cc(C(=O)CCCN3CCC(Cc4ccccc4)CC3)ccc1-2 | 141 to 143
2 | CN(C)Cc1cc2ccc(-c3nnc(CSCCOc4ccccc4)o3)cc2[nH]1 | 128 to 130
3 | Cc1cc2cc(Oc3ccccc3)cnc2cc1C | 224
4 | COC(=O)c1ccc(Cn2c(=O)c3cc(C(=O)NCc4cccc(OC)c4)sc3n(C)c2=O)cc1OC | 200 to 203
5 | CC(C)(C)OC(=O)NCCNC(=O)c1cc(-c2ccccc2)c(=O)n2c1-c1ccccc1C2 | 238 to 240
6 | O=C1c2ccc(F)cc2C(=O)N1c1cc([N+](=O)[O-])c(Cl)cc1F | 162 to 163
7 | FC(F)(F)Oc1ccc(-c2coc3ccc(-c4nnc(N5CCNCC5)o4)cc23)cc1 | 138 to 140
8 | COc1cc(C)ccc1S(=O)(=O)N1CCC(=O)C(C(c2ccccc2)c2ccccc2)C1 (stereo unspecified) | 130 to 131
9 | CCc1nc2cc(S(N)(=O)=O)c(Cl)cc2n1-c1ccc(CCNC(=O)NS(=O)(=O)c2ccc(C)cc2)cc1 | 163 to 170
10 | COC[C@H]1CN(c2ccc(OCCC3(C(F)(F)F)OCCO3)cc2)C(=O)O1 | 112
11 | CCCCc1ncc(/C=C(\Cc2cccs2)C(=O)O)n1Cc1cc(Cl)c(C(=O)O)cc1Cl | 145
12 | CCN(CCCCCN(CCCCCN(CC)S(=O)(=O)c1c(C)cc(C)cc1C)S(=O)(=O)c1c(C)cc(C)cc1C)S(=O)(=O)c1c(C)cc(C)cc1C | 60 to 62
13 | Nc1ccc2nccn2n1 | 198 to 202
14 | Cc1cc2c(cc1C)n(C1CCNCC1)c(=O)n2C | 171 to 172
15 | CCCCCCCCCCNC(=O)C=Cc1cccc(N2CC(C(=O)O)CC2=O)c1 (stereo unspecified) | 151 to 152
16 | N#Cc1ccc(NS(=O)(=O)c2ccc(Cl)cc2)cc1 | 182 to 184
17 | CCOC(=O)c1cn(CC)c2nc(N3CCN(C)CC3)ncc2c1=O | 146 to 147
18 | Cn1c(C(=O)N2CCC[C@@H]3CCCC[C@H]32)cc2ccccc21 (relative stereo) | 87 to 90
19 | CC(=O)NCC(C)n1nnnc1S (stereo unspecified) | 176 to 178
20 | CC(=O)N(C)c1c(C(=O)C2CCCCC2)[nH]c2cc(Cl)ccc12 | 162 to 163
21 | COc1ccc(Cc2nc3n(-c4c(Cl)cc(Cl)cc4Cl)[nH]c(C(C)C)c-3c(=O)n2)cc1 | 183 to 185
22 | CCCCC#Cc1cc(C=CCC(=O)O)ccc1OC | 102
23 | Cc1ccc(-c2ccc3c(c2)C=C(C(=O)Nc2ccc(-c4ccccn4)cc2)CCO3)cc1 | 228 to 229
24 | O=P1(O)Oc2c(-c3ccccc3)cc(Cl)cc2-c2ccccc21 | 260

Row | Compound | melting point [°C]
25 | Cn1ncnc1COc1nn2c(-c3ccccc3F)nncc2c1-c1ccco1 | 188 to 190
26 | O=C(NCCCCCCO)OC1CCN(C(=O)OCc2ccccc2)CC1 | 50 to 52
27 | CCC(C)C(Cl)C(=O)Oc1ccc(C(=O)O)cc1 (stereo unspecified) | 97 to 100
28 | CCc1c(C(=O)C(N)=O)c2c(OCC(=O)N(C)OC)cccc2n1Cc1ccccc1 | 168 to 170
29 | CC(=O)Nc1ccc(Nc2ccccc2[N+](=O)[O-])cc1 | 164 to 166
30 | C[Si]1(CC(CN)CC(=O)O)CCCC1 (stereo unspecified) | 133 to 135
31 | O=C(O)c1cccc(-c2ccc3c(c2)N(Cc2cc(Cl)cc(Cl)c2)CC3)c1 | 207 to 208
32 | COC(=O)c1cn(CC(F)(F)F)c2c(C)cc(F)cc2c1=O | 168 to 171
33 | CN(C)C(=O)Sc1cc(SC(=O)N(C)C)cc(C(N)=O)c1 | 264 to 265
34 | CCOP(=O)(Cc1ccc(N)c2ccccc12)OCC | 73 to 74
35 | CC(C)(C)C(=O)C(Br)Oc1ccc(S(=O)(=O)c2ccccc2)cc1 (stereo unspecified) | 157 to 162
36 | CN1CCC(C2(O)c3ccccc3C=Cc3ccc(C#N)cc32)CC1 (stereo unspecified) | 219 to 221
37 | CCOC(=O)/C=C(C)/C=C/C=C(C)/C=C/c1c(Cl)cc(OC(F)(F)F)c(C)c1Cl | 93 to 94
38 | CSc1ccc(-c2cc3ncnc(Nc4ccc5[nH]ccc5c4)c3s2)cc1 | 163 to 178
39 | CCOC(=O)C(=O)Nc1cc(O)ccc1O | > 300
40 | Cn1ncc(C=O)c1-c1ccoc1 | 70 to 71
41 | Cc1ccc2cccc(OCc3c(Cl)ccc(S(=O)(=O)N4CCC[C@H]4C(=O)N(C)CCNC(=O)OC(C)(C)C)c3Cl)c2n1 | 88
42 | COc1cc(OC)n2nc(S(=O)(=O)Nc3c(Cl)cccc3Cl)nc2n1 | 232 to 234
43 | CC(Oc1c(C(=O)O)cc(Cl)cc1[N+](=O)[O-])C(=O)O (stereo unspecified) | 190
44 | COc1ccc2nc(C)cc(NNC(=O)Nc3ccc(N(CCCl)CCCl)cc3)c2c1 | 184 to 186
45 | CCc1cc(N(C)Cc2ccc3oc(-c4ccccc4C#N)c(Br)c3c2)n2nccc2n1 | 130 to 136
46 | COC1N=C(c2ccccc2Cl)c2cc(Cl)ccc2-c2c[nH]cc21 (stereo unspecified) | 215 to 218
47 | CC(C)C[C@@H](C=O)NC(=O)[C@H](Cc1c[nH]cn1)NC(=O)[C@H](Cc1ccccc1)NC(=O)CCCc1ccccc1 | 98 to 103
48 | COc1ccccc1NC(=O)c1ccc(C)cc1 | 72.5 to 74.5

Row | Compound | melting point [°C]
49 | Cc1cc(C)c(N2C(=O)C(C)Cc3c(Cl)nc(C)nc32)c(C)c1 (stereo unspecified) | 136 to 139
50 | CCc1ccc(N(Cc2ccc(N3CCOCC3)cc2)C(=O)Nc2c(C(C)C)cccc2C(C)C)cc1 | 159 to 161
51 | O=c1c(CCCc2ccco2)cc2cccnc2n1-c1cccc([N+](=O)[O-])c1 | 166 to 167
52 | COC(=O)NC1=NCC(c2ccccc2C)N1C (stereo unspecified) | 158 to 161
53 | CN(C(=O)OC(C)(C)C)c1ccc(C#CCCCOS(C)(=O)=O)cc1 | 85 to 87
54 | CC=CCC(O)(C(=O)c1ccccc1)C(=O)c1ccc(C(C)C)cc1 (stereo unspecified) | 108 to 110
55 | CC(c1cc(F)cc(F)c1)n1ncc(-c2ccc(S(N)(=O)=O)cc2)c(-c2ccc(F)cc2)c1=O (stereo unspecified) | 139 to 141
56 | CC(C)[C@H](OCc1c(F)cccc1F)[C@H]1[C@H]([N+](=O)[O-])[C@H](c2ccccc2)N[C@@H]1C(=O)NCC(=O)O | 80 to 81
57 | Cc1ccc(-c2nnc3c(n2)CCCC3)nc1-c1ccc(F)cc1 | 105
58 | CC(Sc1nc(SCc2ccccc2)n[nH]1)C(=O)O (stereo unspecified) | 123 to 124
59 | c1ccc2c(c1)CCc1ccccc1C21CO1 | 79 to 80
60 | COc1cc(-c2cnc3[nH]cc(I)c3n2)cc(OC)c1OC | 230 to 232
61 | Fc1ccc(-n2c(OCCN3CCCC3)cc3ccc(Cl)cc32)cc1 | 60 to 62
62 | Nc1ncc2cc(-c3c(Cl)cccc3Cl)c(=O)n(Cc3c(Cl)cccc3Cl)c2n1 | 274 to 276
63 | Cc1cc(N2CCNCC2)ccn1 | 93 to 94
64 | COc1cc2c(CCNC(C)=O)cn(C(C)=O)c2cc1Cl | 178 to 181
65 | Cc1nc(N(C)c2ccc(Cl)cc2)sc1-c1ccnc(Nc2ccc(N3CCOCC3)cc2)n1 | 245 to 246
66 | CCCc1c(O)cc2oc3cccn3c(=O)c2c1O | 170 to 171
67 | COc1ccc2cc(C#N)sc2c1 | 82 to 83
68 | CCN(CC)C(=O)n1cc(C(=O)C2CSC(c3cccnc3)N2)c2ccccc21 (stereo unspecified) | 84
69 | O=C(c1cccc(Cc2ccc(=O)[nH]n2)c1)c1c(Cl)cc(Cl)cc1Cl | 149 to 151
70 | CCOc1ccc(-c2nc(Cn3cccc3C(C)=O)cs2)cc1OCC | 123 to 124
71 | FC(F)(F)c1cccc(CSc2nnc(-c3ccc4nccn4c3)o2)c1 | 147 to 148
72 | CN1CC2c3cccn3Cc3ccc(Cl)cc3N2C(=O)C1=O (stereo unspecified) | 203

Row | Compound | melting point [°C]
73 | O=C(Nc1ccccn1)C(CC1CCCC1)c1ccc(Cl)c([N+](=O)[O-])c1 (stereo unspecified) | 48 to 52
74 | COc1cc2c(c(Cl)c1Cl)C(=O)C(c1ccccc1)(c1ccccc1)C2 | 172 to 174
75 | CC(=O)OC1CC2=CC(=NO)C3C4CCCC4(C)CCC3C2(C)C(OC(C)=O)C1 (stereo unspecified) | 236 to 238
76 | N#Cc1ccccc1OC(=O)CCC1CCN(C(=N)N)CC1 | 160 to 162
77 | CCCn1cc(Cc2ccc(C(=O)NS(=O)(=O)c3ccccc3C)cc2OC)c2cc(CCCCC(=O)N(C)C)ccc21 | 80 to 85
78 | N#Cc1cc(C#N)cc(CO)c1 | 119 to 120
79 | CNC(=O)Cc1ccccc1O | 105 to 106
80 | CCC(Cn1nccn1)n1nnc2cc3c(=O)n(C(C)Cn4ncnn4)nnc3cc2c1=O (stereo unspecified) | 162 to 163
81 | CCOc1nc(N)nc2c1CCC2 | 134 to 135
82 | COCCOc1ccc(Nc2cc(Nc3ccc(F)c(Cl)c3)ncn2)cc1 | 208 to 210
83 | Cc1[nH]c(=O)n(-c2cc(C(=O)OC(C)C)c(Cl)cc2F)c(=O)c1C#N | 189 to 193
84 | COc1cc(CC(=O)NC(CC(C)C)c2cc(CC(NC(C)=O)C(=O)O)on2)ccc1NC(=O)Nc1ccccc1C (stereo unspecified) | 123 to 125
85 | O=c1c(Cc2ccccn2)cc2cccnc2n1-c1cccc([N+](=O)[O-])c1 | 229 to 231
86 | Cc1ccc(N2CCNCC2)c2c1CC[C@@H](NC(=O)c1ccc(N3CCOCC3)cc1)C2 | 207 to 210
87 | Cc1ccc(S(=O)(=O)OC[C@H](CNC(=O)c2ccc(Cl)s2)OC(=O)Nc2ccc(N3CCOCC3=O)cc2)cc1 | 142
88 | Cc1nnc(N2N=C(c3ccc([N+](=O)[O-])cc3)c3cc4c(cc3CC2C)OCO4)s1 (stereo unspecified) | 101 to 102
89 | CC12CCC3c4ccc(C(=O)O)cc4CCC3C1CCC2C(=O)C#Cc1ccccc1 (stereo unspecified) | 174 to 178
90 | CCCCOC(=O)c1ccc2ccc(C)nc2c1OC(=O)C(C)(C)C | 52
91 | O=C1CC2(CCCC2)c2ccc(Cl)cc21 | 54
92 | CCOC(=O)C(Oc1nc(OC)cc(OC)n1)C(C)(C)c1ccccc1 (stereo unspecified) | 123 to 124
93 | O=C(O)CCCCNC(=O)c1ccc(Cl)cc1O | 140 to 141
94 | COc1ccccc1C(=O)NCCc1ccc(-c2ccc(OC(C)(C)C(=O)O)cc2)cc1 | 133
95 | CSC(=S)C1(c2ccc3ccccc3n2)CCCS1 (stereo unspecified) | 72
96 | O=C(O)c1cn(C2CCN(c3c(F)cc4c(=O)c(C(=O)O)cn(C5CC5)c4c3F)C2)nn1 (stereo unspecified) | 222 to 225
